Reference: patent US8138168B1 (Takeda Pharmaceutical Company Limited, priority 2007, dated 2012)

target: T1, Recombinant human renin (Homo sapiens, UniProt P00797); assay: In vitro enzymatic activity assay of renin inhibitors (fluorogenic peptide substrate); format: biochemical; conditions: read-out: IC50 of Exemplified Compounds Against Renin
T1 construct: isolate the active form (residues 67-406); made in house; host or cells: FreeStyle 293-F cells (transient expression of pcDNA3.1(+)/hREN)
T1 sequence (P00797 67-406): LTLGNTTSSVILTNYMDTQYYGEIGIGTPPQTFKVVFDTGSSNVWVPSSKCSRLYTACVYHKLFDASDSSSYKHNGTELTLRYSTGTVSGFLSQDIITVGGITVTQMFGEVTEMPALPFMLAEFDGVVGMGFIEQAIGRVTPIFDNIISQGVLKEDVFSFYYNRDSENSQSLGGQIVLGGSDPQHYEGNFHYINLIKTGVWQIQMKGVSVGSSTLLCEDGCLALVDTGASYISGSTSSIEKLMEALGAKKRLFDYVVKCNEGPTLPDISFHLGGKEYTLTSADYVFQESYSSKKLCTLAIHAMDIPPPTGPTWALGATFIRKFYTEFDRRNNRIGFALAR
Procedure, shortened: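 Recombinant human renin (3 nM final) pre-incubated 10 min at 37 °C with compounds in pH 7.4 Hepes/EDTA/DTT/0.1 mg/mL BSA/Brij35 buffer (optionally plus 2% BSA), 5% DMSO final; fluorogenic QXL520/HiLyteFluo488 peptide substrate added.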

`CC(=O)NCCn1c([C@@H]2CCCN(C(=O)C[C@H](N)Cc3ccc(-c4ccc5c(c4)OC(F)(F)O5)cc3)C2)nc2ccccc21` [Compound 448, N-(2-(2-((R)-1-((R)-3-amino-4-(4-(2,2-difluorobenzo[d][1,3]dioxol-5-yl)phenyl)butanoyl)piperidin-3-yl)-1H-benzo[d]imidazol-1-yl)ethyl)acetamide] and `CC(=O)NCCn1c([C@@H]2CCCN(C(=O)C[C@H](N)Cc3ccc(-c4ccc5c(c4)OCCO5)cc3)C2)nc2ccccc21` [Compound 449, N-(2-(2-((R)-1-((R)-3-amino-4-(4-(2,3-dihydrobenzo[b][1,4]dioxin-6-yl)phenyl)butanoyl)piperidin-3-yl)-1H-benzo[d]imidazol-1-yl)ethyl)acetamide] fall in the same range of IC50: 100 to 1000 nM for the first, 100 to 1000 nM for the second.

`CC(=O)NCCn1c([C@@H]2CCCN(C(=O)C[C@H](N)Cc3ccc(-c4cnc(N)nc4)cc3)C2)nc2ccccc21` [Compound 450, N-(2-(2-((R)-1-((R)-3-amino-4-(4-(2-aminopyrimidin-5-yl)phenyl)butanoyl)piperidin-3-yl)-1H-benzo[d]imidazol-1-yl)ethyl)acetamide] and `CC(=O)NCCn1c([C@@H]2CCCN(C(=O)C[C@H](N)Cc3ccc(-c4cnc(N)nc4)cc3)C2)nc2c(Cl)cccc21` [Compound 470, N-(2-(2-((R)-1-((R)-3-amino-4-(4-(2-aminopyrimidin-5-yl)phenyl)butanoyl)piperidin-3-yl)-4-chloro-1H-benzo[d]imidazol-1-yl)ethyl)acetamide] fall in the same range of IC50: 100 to 1000 nM for the first, 100 to 1000 nM for the second.

`COCCCn1c([C@@H]2CCCN(C(=O)C[C@H](N)Cc3ccc(-c4ccc(O)nc4)cc3)C2)nc2c(F)cccc21` [Compound 451, (R)-3-amino-1-((R)-3-(4-fluoro-1-(3-methoxypropyl)-1H-benzo[d]imidazol-2-yl)piperidin-1-yl)-4-(4-(6-hydroxypyridin-3-yl)phenyl)butan-1-one] and `COCCCn1c([C@@H]2CCCN(C(=O)C[C@H](N)Cc3ccc(-c4ccc(N)nc4)cc3)C2)nc2c(F)cccc21` [Compound 452, (R)-3-amino-4-(4-(6-aminopyridin-3-yl)phenyl)-1-((R)-3-(4-fluoro-1-(3-methoxypropyl)-1H-benzo[d]imidazol-2-yl)piperidin-1-yl)butan-1-one] cannot be ordered by IC50: < 100 nM for the first, < 100 nM for the second.

`COCCCn1c([C@@H]2CCCN(C(=O)C[C@H](N)Cc3ccc(-c4ccc5c(c4)OCCN5C)cc3)C2)nc2c(F)cccc21` [Compound 453, (R)-3-amino-1-((R)-3-(4-fluoro-1-(3-methoxypropyl)-1H-benzo[d]imidazol-2-yl)piperidin-1-yl)-4-(4-(4-methyl-3,4-dihydro-2H-benzo[b][1,4]oxazin-7-yl)phenyl)butan-1-one] and `COCCCn1c([C@@H]2CCCN(C(=O)C[C@H](N)Cc3ccc(-c4ccc5c(c4)OCCO5)cc3)C2)nc2c(F)cccc21` [Compound 455, (R)-3-amino-4-(4-(2,3-dihydrobenzo[b][1,4]dioxin-6-yl)phenyl)-1-((R)-3-(4-fluoro-1-(3-methoxypropyl)-1H-benzo[d]imidazol-2-yl)piperidin-1-yl)butan-1-one] cannot be ordered by IC50: < 100 nM for the first, < 100 nM for the second.

`COCCCn1c([C@@H]2CCCN(C(=O)C[C@H](N)Cc3ccc(-c4ccc5c(c4)OC(F)(F)O5)cc3)C2)nc2c(F)cccc21` [Compound 454, (R)-3-amino-4-(4-(2,2-difluorobenzo[d][1,3]dioxol-5-yl)phenyl)-1-((R)-3-(4-fluoro-1-(3-methoxypropyl)-1H-benzo[d]imidazol-2-yl)piperidin-1-yl)butan-1-one] and `COCCCn1c([C@@H]2CCCN(C(=O)C[C@H](N)Cc3ccc(-c4ccc5c(c4)CC(=O)N5)cc3)C2)nc2c(F)cccc21` [Compound 458, 5-(4-((R)-2-amino-4-((R)-3-(4-fluoro-1-(3-methoxypropyl)-1H-benzo[d]imidazol-2-yl)piperidin-1-yl)-4-oxobutyl)phenyl)indolin-2-one] cannot be ordered by IC50: < 100 nM for the first, < 100 nM for the second.

`COCCCn1c([C@@H]2CCCN(C(=O)C[C@H](N)Cc3ccc(-c4cnc(N)nc4)cc3)C2)nc2c(F)cccc21` [Compound 456, (R)-3-amino-4-(4-(2-aminopyrimidin-5-yl)phenyl)-1-((R)-3-(4-fluoro-1-(3-methoxypropyl)-1H-benzo[d]imidazol-2-yl)piperidin-1-yl)butan-1-one] and `COCCCn1c([C@@H]2CCCN(C(=O)C[C@H](N)Cc3ccc(-c4ccc5oc(N)nc5c4)cc3)C2)nc2c(F)cccc21` [Compound 463, (R)-3-amino-4-(4-(2-aminobenzo[d]oxazol-5-yl)phenyl)-1-((R)-3-(4-fluoro-1-(3-methoxypropyl)-1H-benzo[d]imidazol-2-yl)piperidin-1-yl)butan-1-one] cannot be ordered by IC50: < 100 nM for the first, < 100 nM for the second.

First: COC(=O)Nc1ccc(-c2ccc(C[C@@H](N)CC(=O)N3CCC[C@@H](c4nc5ccccc5n4CCNC(C)=O)C3)cc2)cc1 [Compound 457, methyl 4′-((R)-4-((R)-3-(1-(2-acetamidoethyl)-1H-benzo[d]imidazol-2-yl)piperidin-1-yl)-2-amino-4-oxobutyl)biphenyl-4-ylcarbamate]
Second: CC(=O)NCCn1c([C@@H]2CCCN(C(=O)C[C@H](N)Cc3ccc(-c4ccc(N5CCNC5=O)cc4)cc3)C2)nc2ccccc21 [Compound 462, N-(2-(2-((R)-1-((R)-3-amino-4-(4′-(2-oxoimidazolidin-l-yl)biphenyl-4-yl)butanoyl)piperidin-3-yl)-1H-benzo[d]imidazol-1-yl)ethyl)acetamide]
The IC50 of the first is lower: < 100 nM for the first, 100 to 1000 nM for the second.

`COCCCn1c([C@@H]2CCCN(C(=O)C[C@H](N)Cc3ccc(-c4ccc5c(c4)NC(=O)C5)cc3)C2)nc2c(F)cccc21` [Compound 459, 6-(4-((R)-2-amino-4-((R)-3-(4-fluoro-1-(3-methoxypropyl)-1H-benzo[d]imidazol-2-yl)piperidin-l-yl)-4-oxobutyl)phenyl)indolin-2-one] and `COCCCn1c([C@@H]2CCCN(C(=O)C[C@H](N)Cc3ccc(-c4ccc5oc(=O)[nH]c5c4)cc3)C2)nc2c(F)cccc21` [Compound 460, 5-(4-((R)-2-amino-4-((R)-3-(4-fluoro-1-(3-methoxypropyl)-1H-benzo[d]imidazol-2-yl)piperidin-1-yl)-4-oxobutyl)phenyl)benzo[d]oxazol-2(3H)-one] cannot be ordered by IC50: < 100 nM for the first, < 100 nM for the second.

First: CC(=O)NCCn1c([C@@H]2CCCN(C(=O)C[C@H](N)Cc3ccc(-c4ccnc(O)c4)cc3)C2)nc2ccccc21 [Compound 461, N-(2-(2-((R)-1-((R)-3-amino-4-(4-(2-hydroxypyridin-4-yl)phenyl)butanoyl)piperidin-3-yl)-1H-benzo[d]imidazol-1-yl)ethyl)acetamide]
Second: CC(=O)NCCn1c([C@@H]2CCCN(C(=O)C[C@H](N)Cc3ccc(-c4ccc5c(c4)CC(=O)N5)cc3)C2)nc2ccccc21 [Compound 465, N-(2-(2-((R)-1-((R)-3-amino-4-(4-(2-oxoindolin-5-yl)phenyl)butanoyl)piperidin-3-yl)-1H-benzo[d]imidazol-1-yl)ethyl)acetamide]
The IC50 of the first is higher: 100 to 1000 nM for the first, < 100 nM for the second.

Compared with `CC(=O)NCCn1c([C@@H]2CCCN(C(=O)C[C@H](N)Cc3ccc(-c4ccc5c(c4)SCC(=O)O5)cc3)C2)nc2ccccc21` [Compound 464, N-(2-(2-((R)-1-((R)-3-amino-4-(4-(2-oxo-2,3-dihydrobenzo[b][1,4]oxathiin-6-yl)phenyl)butanoyl)piperidin-3-yl)-1H-benzo[d]imidazol-1-yl)ethyl)acetamide], `CC(=O)NCCn1c([C@@H]2CCCN(C(=O)C[C@H](N)Cc3ccc(-c4ccc5c(c4)NC(=O)CO5)cc3)C2)nc2ccccc21` [Compound 469] is higher in IC50: < 100 nM for the first, 100 to 1000 nM for the second. The first is the more potent here.

`CC(=O)NCCn1c([C@@H]2CCCN(C(=O)C[C@H](N)Cc3ccc(-c4ccc5c(c4)NC(=O)C5)cc3)C2)nc2ccccc21` [Compound 466, N-(2-(2-((R)-1-((R)-3-amino-4-(4-(2-oxoindolin-6-yl)phenyl)butanoyl)piperidin-3-yl)-1H-benzo[d]imidazol-1-yl)ethyl)acetamide] and `CC(=O)NCCn1c([C@@H]2CCCN(C(=O)C[C@H](N)Cc3ccc(-c4ccc5oc(=O)[nH]c5c4)cc3)C2)nc2ccccc21` [Compound 467, N-(2-(2-((R)-1-((R)-3-amino-4-(4-(2-oxo-2,3-dihydrobenzo[d]oxazol-5-yl)phenyl)butanoyl)piperidin-3-yl)-1H-benzo[d]imidazol-1-yl)ethyl)acetamide] fall in the same range of IC50: 100 to 1000 nM for the first, 100 to 1000 nM for the second.

`CC(=O)NCCn1c([C@@H]2CCCN(C(=O)C[C@H](N)Cc3ccc(-c4ccc(N)nc4)cc3)C2)nc2c(C)cccc21` [Compound 471, N-(2-(2-((R)-1-((R)-3-amino-4-(4-(6-aminopyridin-3-yl)phenyl)butanoyl)piperidin-3-yl)-4-methyl-1H-benzo[d]imidazol-1-yl)ethyl)acetamide] and `CC(=O)NCCn1c([C@@H]2CCCN(C(=O)C[C@H](N)Cc3ccc(-c4ccc(O)nc4)cc3)C2)nc2c(C)cccc21` [Compound 473, N-(2-(2-((R)-1-((R)-3-amino-4-(4-(6-hydroxypyridin-3-yl)phenyl)butanoyl)piperidin-3-yl)-4-methyl-1H-benzo[d]imidazol-1-yl)ethyl)acetamide] fall in the same range of IC50: 100 to 1000 nM for the first, 100 to 1000 nM for the second.

`CC(=O)NCCn1c([C@@H]2CCCN(C(=O)C[C@H](N)Cc3ccc(-c4cnc(N)nc4)cc3)C2)nc2c(C)cccc21` [Compound 472, N-(2-(2-((R)-1-((R)-3-amino-4-(4-(2-aminopyrimidin-5-yl)phenyl)butanoyl)piperidin-3-yl)-4-methyl-1H-benzo[d]imidazol-1-yl)ethyl)acetamide] gave an IC50 of 100 to 1000 nM.
